The text below walks through data of ChEMBL document CHEMBL1201862, “PubChem BioAssay data set” (2004).

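Interpolation was linear, between the two tested concentrations surrounding the appropriate level; five concentrations were tested over 48 hours in 96-well plates. Here, GI50 denotes the concentration required for 50% inhibition of growth.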 The source made the active and inactive calls. Rule as the data show it: active = GI50 up to about 1.1 µM and inactive = higher. A value given as a limit tells only on which side of the number the result lay.

Test systems include HCT-116; EKVX; HCC 2998; M14; NCI-H23; HOP-62; NCI-H460; UACC-62; TK-10; UO-31; OVCAR-8; HT-29; NCI-H522; SF-539; DMS-273; SN12C; SR; MDA-N; MDA-MB-231; PC-3.
Holding throughout (assay): growth of human tumour cells (NCI), 48 h

For the compound `Cc1ccc(NC(=O)C(=O)CC(=O)C2CCOC2=O)c(C)c1` (stereo not drawn), the GI50 in the assay on HCT-116, with EKVX, with HCC 2998, in the assay with M14, in the assay on NCI-H23 and in the assay on HOP-62 was > 100 µM (inactive) in each case. The GI50 with NCI-H460, with UACC-62, in the assay with TK-10, with UO-31, in the assay with OVCAR-8 and with HT-29 was > 100 µM (inactive) each time. Moreover, the GI50 with NCI-H522, in the assay with SF-539, in the assay with DMS-273 and with SN12C was > 100 µM (inactive) throughout.
For `COc1cc(/C=C\c2ccc(Cl)cc2)cc(OC)c1OC`, the GI50 in the assay with HCT-116 was 0.0652 µM (active); in the assay on EKVX, 0.439 µM (active); in the assay on HCC 2998 it was 1.73 µM (inactive); with M14, 0.0647 µM (active); in the assay with NCI-H23, 0.247 µM (active); in the assay on HOP-62, 0.302 µM (active). The GI50 in the assay on NCI-H460 is 0.221 µM (active); with UACC-62, 0.0885 µM (active); in the assay on TK-10 it was 38.9 µM (inactive); with UO-31, 0.593 µM (active); in the assay with SR, 0.0652 µM (active); with OVCAR-8, 0.363 µM (active). Moreover, the GI50 in the assay with HT-29 was 0.0459 µM (active); with NCI-H522 it was 0.111 µM (active); with SF-539 it was 0.147 µM (active); in the assay with DMS-273 it was 0.149 µM (active); in the assay on SN12C, 0.508 µM (active).
For the compound `FC(F)(F)c1cccc(C2SCc3nc4ccccc4n32)c1` (stereo not drawn), the GI50 is 38.9 µM (inactive) with HCT-116; 73.3 µM (inactive) with EKVX; > 100 µM (inactive) in the assay on HCC 2998; 9.79 µM (inactive) in the assay with NCI-H23; > 100 µM (inactive) with UACC-62; 72.3 µM (inactive) with TK-10. Besides, the GI50 with UO-31 is > 100 µM (inactive); in the assay on SR it was 44 µM (inactive); with OVCAR-8 it was 59.3 µM (inactive); in the assay on HT-29, > 100 µM (inactive); with NCI-H522 it was 17.6 µM (inactive); with SF-539, 26.6 µM (inactive). Further, the GI50 was 41.9 µM (inactive) in the assay with DMS-273 and > 100 µM (inactive) in the assay with SN12C.
Consider `COC1=C(C)C(=O)C2C(C1=O)C(c1ccc(OC)c(OC)c1)[C@H]2C` (stereo partly drawn), for which the GI50 in the assay with EKVX, in the assay on HCC 2998, in the assay with M14, in the assay with NCI-H23, with HOP-62 and in the assay with NCI-H460 was > 100 µM (inactive) throughout. The GI50 in the assay on UACC-62 is > 100 µM (inactive); with TK-10, > 100 µM (inactive); with UO-31, 61.1 µM (inactive); in the assay on SR, > 100 µM (inactive); in the assay with OVCAR-8, > 100 µM (inactive); in the assay on HT-29 it was > 100 µM (inactive). For the same compound, the GI50 in the assay on NCI-H522, in the assay on SF-539 and with DMS-273 was > 100 µM (inactive) in each case.
In the case of `CCCCCC(O)(CCCCC)CCCCCCCCC1=C(O)C(=O)c2ccc(=O)[nH]c2C1=O`, the GI50 in the assay on HCT-116 was 4.34 µM (inactive); in the assay with EKVX, 13.4 µM (inactive); in the assay with HCC 2998, 14.5 µM (inactive); with M14, 10 µM (inactive); with NCI-H23, 2.61 µM (inactive); in the assay with HOP-62 it was 10.4 µM (inactive). In addition, the GI50 in the assay with NCI-H460 is 8.85 µM (inactive); in the assay on UACC-62, 3.2 µM (inactive); with UO-31, 13.3 µM (inactive); with SR it was 27.3 µM (inactive); with OVCAR-8, 9.06 µM (inactive); in the assay with HT-29 it was 15.3 µM (inactive). The GI50 was 4.78 µM (inactive) in the assay with NCI-H522, 7.6 µM (inactive) in the assay on SF-539, 3.59 µM (inactive) in the assay with DMS-273 and 7.64 µM (inactive) in the assay with SN12C.
As for `C=C1C2CC(OC(C)=O)C3(C)C(c4ccoc4)OC(=O)[C@@H](O)[C@]13OC1C[C@H](OC(C)=O)C(C)(C)[C@H](C(O)C(=O)OC)[C@]12C` (stereo partly drawn), the GI50 in the assay with HCT-116, in the assay on EKVX, in the assay with HCC 2998, with M14, in the assay with NCI-H23 and in the assay with NCI-H460 was > 100 µM (inactive) in each case. Also, the GI50 in the assay with UACC-62, with TK-10, with UO-31, in the assay with OVCAR-8, in the assay with HT-29 and in the assay with SF-539 was > 100 µM (inactive) each time. In addition, the GI50 with DMS-273 and with SN12C was > 100 µM (inactive) throughout.
As for `Clc1cccc2c1OCC1C(c3ccccc3)=NN(c3ccccc3)C21` (stereo not drawn), the GI50 is 12.9 µM (inactive) in the assay with HCT-116; 40.1 µM (inactive) with EKVX; > 100 µM (inactive) in the assay on HCC 2998; > 100 µM (inactive) with NCI-H23; > 100 µM (inactive) with HOP-62; 59.4 µM (inactive) with NCI-H460. The GI50 in the assay with TK-10 was > 100 µM (inactive); with UO-31 it was 60.8 µM (inactive); in the assay on OVCAR-8 it was 81.8 µM (inactive); with HT-29, 83.9 µM (inactive); in the assay with NCI-H522, 45.4 µM (inactive); in the assay on DMS-273, 45.8 µM (inactive).
For the compound `C/C(=C1/N=C(c2cc([N+](=O)[O-])ccc2Cl)N(c2ccc(Br)cc2)C1=O)c1ccc(N(CCC#N)CCC#N)cc1C`, the GI50 in the assay with HCT-116 was 15.6 µM (inactive); with EKVX it was > 100 µM (inactive); in the assay on HCC 2998, 32.1 µM (inactive); in the assay on M14 it was 13.6 µM (inactive); in the assay with NCI-H23, 42.7 µM (inactive); in the assay on HOP-62, 19.8 µM (inactive). In addition, the GI50 with NCI-H460 was 25.1 µM (inactive); with UACC-62, 3.61 µM (inactive); in the assay on TK-10 it was 68.2 µM (inactive); with UO-31, 24.7 µM (inactive); with SR, 7.98 µM (inactive); with OVCAR-8, 43.5 µM (inactive). Besides, the GI50 was 36.9 µM (inactive) in the assay with HT-29, 52.2 µM (inactive) in the assay with SF-539, 7.23 µM (inactive) in the assay on DMS-273 and 40.4 µM (inactive) with SN12C.
`O=C(c1ccncc1)n1nc(-c2ccccc2)c(/N=N/c2ccccc2[N+](=O)[O-])c1-c1ccccc1`: the GI50 is 44.3 µM (inactive) with HCT-116; 9.04 µM (inactive) in the assay on EKVX; 34.7 µM (inactive) in the assay with HCC 2998; > 100 µM (inactive) in the assay with M14; 30 µM (inactive) in the assay on NCI-H23; 38.3 µM (inactive) with HOP-62. Moreover, the GI50 with UACC-62 was 75.3 µM (inactive); in the assay with TK-10, 67.9 µM (inactive); in the assay on UO-31 it was 9.62 µM (inactive); in the assay with SR, 36.6 µM (inactive); with OVCAR-8, 56.1 µM (inactive); in the assay on HT-29, 26.2 µM (inactive). For the same compound, the GI50 with NCI-H522 is 56 µM (inactive); in the assay on SF-539 it was 50.8 µM (inactive); in the assay with DMS-273, > 100 µM (inactive); in the assay with SN12C it was > 100 µM (inactive).
`COc1cc(C(O)C(=O)c2cnc3cc([N+](=O)[O-])ccc3n2)ccc1O` (stereo not drawn): the GI50 in the assay with HCT-116 is > 100 µM (inactive); in the assay on EKVX, 72.3 µM (inactive); in the assay with HCC 2998, > 100 µM (inactive); in the assay with M14 it was > 100 µM (inactive); with HOP-62, 85.5 µM (inactive); with NCI-H460 it was > 100 µM (inactive). For the same compound, the GI50 is 62.1 µM (inactive) in the assay with UACC-62; > 100 µM (inactive) with TK-10; > 100 µM (inactive) with UO-31; > 100 µM (inactive) in the assay with SR; > 100 µM (inactive) in the assay with OVCAR-8; > 100 µM (inactive) in the assay on HT-29. Moreover, the GI50 in the assay on SF-539, with DMS-273 and in the assay with SN12C was > 100 µM (inactive) in each case.
Regarding `S=C(Nc1ccccc1)Nc1[nH]c(=S)sc1-c1nc2ccccc2[nH]1`, the GI50 in the assay with EKVX was 75.9 µM (inactive); in the assay on HCC 2998 it was > 100 µM (inactive); with M14 it was 49.8 µM (inactive); in the assay with NCI-H23 it was > 100 µM (inactive); in the assay with HOP-62 it was 23.1 µM (inactive); in the assay with UACC-62 it was 57.9 µM (inactive). Also, the GI50 is 40.1 µM (inactive) in the assay on TK-10; > 100 µM (inactive) in the assay on UO-31; 48.8 µM (inactive) with OVCAR-8; > 100 µM (inactive) with HT-29; 62.4 µM (inactive) with NCI-H522; 28.6 µM (inactive) in the assay on SF-539. Further, the GI50 in the assay on DMS-273 is 37.8 µM (inactive); in the assay with SN12C it was > 100 µM (inactive).
As to `COC(=O)C1(Cc2ccc(C)cc2)Cc2c(C)cccc2C1=O` (stereo not drawn), the GI50 in the assay with HCT-116 is 13.3 µM (inactive); in the assay on EKVX, 18.2 µM (inactive); in the assay on HCC 2998, 16.8 µM (inactive); with M14, 16.6 µM (inactive); in the assay on NCI-H23 it was 35.3 µM (inactive); in the assay on HOP-62 it was 19.3 µM (inactive). The GI50 was 3.27 µM (inactive) in the assay with MDA-N; 17.6 µM (inactive) with NCI-H460; 20.8 µM (inactive) in the assay on UACC-62; 26.2 µM (inactive) in the assay on TK-10; 24.7 µM (inactive) in the assay with UO-31; 7.24 µM (inactive) in the assay on SR. Moreover, the GI50 was 31.1 µM (inactive) in the assay on MDA-MB-231; 12.4 µM (inactive) in the assay on PC-3; 27.7 µM (inactive) in the assay on OVCAR-8; 8.83 µM (inactive) in the assay on HT-29; 11.2 µM (inactive) with NCI-H522; 16.4 µM (inactive) in the assay on SF-539. Besides, the GI50 with SN12C is 18.3 µM (inactive).
Take `NNC(=O)C(=O)N/N=C1\CCC(=O)CC1C(=O)CCC(=O)Nc1ccc(Cl)cc1` (stereo not drawn): the GI50 in the assay on HCT-116, in the assay on EKVX, with HCC 2998, in the assay with M14, in the assay on NCI-H23 and in the assay with NCI-H460 was > 100 µM (inactive) each time. In addition, the GI50 with UACC-62, with TK-10, in the assay on UO-31, with OVCAR-8, in the assay with HT-29 and in the assay on SF-539 was > 100 µM (inactive) in each case. Also, the GI50 in the assay with DMS-273 and in the assay with SN12C was > 100 µM (inactive) each time.
